{"source": "patent US9550792B2", "about": "“Polycyclic substituted pyrazole kinase activity inhibitors and use thereof” (priority 2013, dated 2017)", "key": {"Aurora A": {"molecular_target": "T1, Aurora A (Homo sapiens, UniProt O14965)", "T1 construct": "purchased", "T1 sequence (O14965 1-403)": "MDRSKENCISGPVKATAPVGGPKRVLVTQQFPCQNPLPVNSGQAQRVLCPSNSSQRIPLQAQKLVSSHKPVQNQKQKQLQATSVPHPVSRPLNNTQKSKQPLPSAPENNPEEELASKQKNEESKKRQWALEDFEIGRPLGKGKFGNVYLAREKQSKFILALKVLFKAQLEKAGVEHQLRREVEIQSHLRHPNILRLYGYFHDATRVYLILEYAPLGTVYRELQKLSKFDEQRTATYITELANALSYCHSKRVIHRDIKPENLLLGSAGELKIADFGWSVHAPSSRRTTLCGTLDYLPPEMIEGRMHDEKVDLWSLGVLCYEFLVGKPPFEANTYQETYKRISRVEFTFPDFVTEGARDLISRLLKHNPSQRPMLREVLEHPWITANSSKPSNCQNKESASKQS", "assay": "Inhibitory activity to Aurora A (FRET)", "type": "biochemical", "details": "read-out: Aurora A inhibition % (1 × 10^−6 mol/L)", "procedure": "The inhibitory activities of the synthesized compounds for Aurora A is determined by fluorescence resonance energy transfer (FRET) and were compared with the positive control drug so as to screen the compounds with better activities. Aurora A was purchased in the form of a kit or obtained through purification. Procedures: Aurora A is diluted to a suitable concentration with kinase diluent. The kinase reaction mixture contains Aurora A, peptide substrate, HEPES (pH7.5), BRIJ-35, MgCl2 and EDTA. Aurora A phospho-peptide substrate is used as the control of 100% phosphorylation and ATP-free as the control of 0% phosphorylation. After 1 h, the diluted Development Reagent A is added into the reaction system. Then the reaction is allowed to proceed for 1 h and then quenched with Stop Reagent. The excitation wavelength is 400 nm and the fluorescence intensity is detected at 445 nm (coumarin) and 520 nm (fluorescein). The inhibitions of the tested compounds are calculated according to the formula."}, "[1]": {"tested_on": "colon cancer cell line HCT116", "assay": "Anti-tumor activity in vitro, MTT method", "type": "cell-based", "details": "Homo sapiens"}, "[2]": {"tested_on": "liver cancer cell line 7721", "assay": "Anti-tumor activity in vitro, MTT method", "type": "cell-based", "details": "48 h, read-out: 7721 (IC50/μM)"}, "lung cancer cell H1299": {"tested_on": "lung cancer cell H1299", "assay": "Anti-tumor activity in vitro, MTT method", "type": "cell-based", "details": "Homo sapiens, read-out: H1299 (IC50/μM)"}, "S180 grafting tumor": {"tested_on": "S180 grafting tumor", "assay": "Inhibition to S180 grafting tumor in animal", "type": "in vivo, ICR mouse", "details": "15 mg/kg intravenously once a day, 7 administrations", "procedure": "ICR mouse was inoculated with solid tumor according to tumor grafting process (tumor piece was weighed under sterile condition, homogenized with glass tissue homogenizer, placed within a sterile container, to which was added physiological saline to prepare 1:3 cell suspension. The container was placed on ice and aspirated and the cells were mixed homogeneously before each aspiration. Each mouse was inoculated subcutaneously 0.2 mL at right fore axilla). […] The mice were administered intravenously, once a day and 7 administrations in total. The administration volume was 0.4 ml/20 g. The mice bearing tumor were sacrificed 8 days after inoculation (d8). The tumor tissue was separated and weighed. The data was analyzed with statistics method (t-test).\nDose setting: 5 groups in total."}, "[3]": {"tested_on": "breast cancer cell line MDA231", "assay": "Anti-tumor activity in vitro, MTT method", "details": "Homo sapiens, MDA-MB-231, 48 h, read-out: MDA231 (IC50/μM)", "method": "(§2) MTT method: the dehydrogenase associated with NADP in the mitochondria of living cell is capable of reducing exogenous MTT into insoluble bluish violet crystal (Formazan), which is precipitated in the cell. […] DMSO or Triple liquid (10% SDS-5% isobutanol-0.01 mol/L HCl) is used to dissolve the crystal in the cell. The OD determined at 570 nm by a microplate reader can reflect the amount of the living cell indirectly.\n(§3) The crystal is dissolved with DMSO and the detection is performed on a microplate reader."}, "[4]": {"tested_on": "stomach cancer cell line MGC803", "assay": "Anti-tumor activity in vitro, MTT method", "details": "Homo sapiens, MGC-803, 48 h, read-out: MGC803 (IC50/μM)", "method": "as §2, §3"}, "[5]": {"tested_on": "stomach cancer cell line BSG823", "assay": "Anti-tumor activity in vitro, MTT method", "details": "48 h, read-out: BSG823 (IC50/μM)", "method": "as §2, §3"}, "leukemia cell line K562": {"tested_on": "leukemia cell line K562", "assay": "Anti-tumor activity in vitro, MTT method", "details": "Homo sapiens, K562, 48 h, read-out: K562 (IC50/μM)", "method": "as §2, §3"}, "[6]": {"tested_on": "breast cancer cell line MCF-7", "assay": "Anti-tumor activity in vitro, MTT method", "details": "Homo sapiens, MCF7, 48 h, read-out: MCF7 (IC50/μM)", "method": "as §2, §3"}, "[7]": {"tested_on": "resistant breast cancer cell line MCF-7", "assay": "Anti-tumor activity in vitro, MTT method", "details": "Homo sapiens, MCF7, 48 h, read-out: Resistant MCF7 (IC50/μM)", "method": "as §2, §3"}, "leukemia cell line NB4": {"tested_on": "leukemia cell line NB4", "assay": "Anti-tumor activity in vitro, MTT method", "details": "48 h, read-out: NB4 (IC50/μM)", "method": "as §2, §3"}, "[8]": {"tested_on": "liver cancer cell line HEPG2", "assay": "Anti-tumor activity in vitro, MTT method", "details": "Homo sapiens, HepG2, 48 h, read-out: HEPG2 (IC50/μM)", "method": "as §2, §3"}, "[9]": {"tested_on": "umbilical cord vein endothelium cell line HUVEC", "assay": "Anti-tumor activity in vitro, MTT method", "details": "Homo sapiens, 48 h, read-out: HUVEC (IC50/μM)", "method": "as §2, §3"}, "[10]": {"tested_on": "lung cancer cell line A549", "assay": "Anti-tumor activity in vitro, MTT method", "details": "Homo sapiens, A549, 48 h, read-out: A549 (IC50/μM)", "method": "as §2, §3"}, "CDK2/A": {"molecular_target": "T2, CDK2/A (Homo sapiens, UniProt P24941)", "T2 construct": "purchased", "assay": "Inhibitory activity to CDK2 (FRET)", "type": "biochemical", "details": "read-out: CDK2 inhibition % (1 × 10^−6 mol/L)", "procedure": "CDK2/A was purchased in the form of a kit or obtained through purification.\nProcedures: CDK2/A is diluted to a suitable concentration with kinase diluent. The kinase reaction mixture contains CDK2/A, peptide substrate, HEPES (pH7.5), BRIJ-35, MgCl2 and EDTA. CDK2 phospho-peptide substrate is used as the control of 100% phosphorylation and ATP-free as the control of 0% phosphorylation. After 1 h, the diluted Development Reagent A is added into the reaction system. Then the reaction is allowed to proceed for 1 h and then quenched with Stop Reagent. […] The inhibitions of the tested compounds are calculated according to the formula."}, "[11]": {"tested_on": "Candida albicans - ATCC 36082", "assay": "Antifungal activity, modified broth microdilution", "type": "cell-based", "details": "Candida albicans, ATCC36082; 48 hours at 35, approximately 50% reduction of growth", "procedure": "(§1) The test microorganisms are maintained on Sabourahd Dextrose Agar slant at 4[…]. Singlet suspension of each microorganism is prepared by growing the yeast overnight at 27[…] on a rotating drum in yeast-nitrogen base broth (YNB) with amino acids (Difco, Detroit, Mich.), (pH 7.0) and 0.05 morpholine propanesulphonic acid (MOPS). […] The activity of the test compound is determined using a modified broth microdilution technique. […] Well 12 serves as a growth control. […] Inoculated plate is incubated for 48 hours at 35 °C. […] Minimal Cytolytic Concentration (MCC) is determined by subculturing all wells from the 96-well plate onto a Sabourahd Dextrose Agar (SDA) plate, incubating for 1-2 days at 35 °C, and then checking viability."}, "Candida parapsilosis": {"tested_on": "Candida parapsilosis", "assay": "Antifungal activity, modified broth microdilution", "type": "cell-based", "details": "Lodderomyces parapsilosis; 48 hours at 35, approximately 50% reduction of growth", "procedure": "as §1"}, "Candida tropicalis": {"tested_on": "Candida tropicalis", "assay": "Antifungal activity, modified broth microdilution", "type": "cell-based", "details": "Candida tropicalis; 48 hours at 35, approximately 50% reduction of growth", "procedure": "as §1"}, "Cryptococcus neoformans": {"tested_on": "Cryptococcus neoformans", "assay": "Antifungal activity, modified broth microdilution", "type": "cell-based", "details": "Cryptococcus neoformans; 48 hours at 35, approximately 50% reduction of growth", "procedure": "as §1"}, "Phytophthora infestans": {"tested_on": "Phytophthora infestans", "type": "in vivo"}, "[12]": {"details": "HCT-116, 48 h, read-out: HCT-116 (IC50/μM)"}, "[13]": {"details": "HCT-116, MTT, 48 h, first cell table, read-out: HCT-116 (IC50/μM)"}}, "note": "Like-named read-outs stand apart in the source and are kept apart here."}
{"smiles": "O=C(NC1CCNCC1)c1n[nH]cc1NC(=O)c1c(Cl)cccc1Cl", "note": "[AT-7519, reference compound]", "values": [{"measurement": "inhibition at 1 µM", "setting": "Aurora A", "value": 38, "unit": "%"}, {"measurement": "IC50", "setting": "[1]; HCT-116, 48 h, read-out: HCT116 (IC50/μM)", "value": 2.63, "unit": "µM"}, {"measurement": "IC50", "setting": "[1]; [12]", "value": 21.2, "unit": "µM"}, {"measurement": "IC50", "setting": "[2]", "value": "> 200", "unit": "µM"}, {"measurement": "IC50", "setting": "lung cancer cell H1299; NCI-H1299, 48 h", "value": 9.32, "unit": "µM"}, {"measurement": "Body weight After administration", "setting": "S180 grafting tumor", "value": "23.83 ± 3.39", "unit": "g"}, {"measurement": "Tumor inhibition", "setting": "S180 grafting tumor; d8", "value": 32.45, "unit": "%"}, {"measurement": "Tumor weight", "setting": "S180 grafting tumor; d8", "value": "0.80 ± 0.27", "unit": "g"}, {"measurement": "IC50", "setting": "[3]", "value": 2.58, "unit": "µM"}, {"measurement": "IC50", "setting": "[4]", "value": 1.93, "unit": "µM"}, {"measurement": "IC50", "setting": "[5]", "value": 16.7, "unit": "µM"}, {"measurement": "IC50", "setting": "leukemia cell line K562", "value": 3.24, "unit": "µM"}, {"measurement": "IC50", "setting": "[6]", "value": 2.04, "unit": "µM"}, {"measurement": "IC50", "setting": "[7]", "value": 22.1, "unit": "µM"}, {"measurement": "IC50", "setting": "leukemia cell line NB4", "value": 0.62, "unit": "µM"}, {"measurement": "IC50", "setting": "[8]", "value": 53.6, "unit": "µM"}, {"measurement": "IC50", "setting": "[9]", "value": 5.67, "unit": "µM"}, {"measurement": "IC50", "setting": "[10]", "value": 53.5, "unit": "µM"}]}
{"smiles": "O=C(Nc1ccc(CN2CCOCC2)cc1)c1n[nH]cc1Nc1ncnc2occc12", "note": "[Compound I-22, 4-(4-furo[2,3-d]pyrimidinylamino)-N-(4-((4-morpholinyl)methyl)phenyl)-1H-3-pyrazolecarboxamide]", "values": [{"measurement": "inhibition at 1 µM", "setting": "CDK2/A", "value": 66.3, "unit": "%"}, {"measurement": "inhibition at 1 µM", "setting": "Aurora A", "value": 48.5, "unit": "%"}, {"measurement": "IC50", "setting": "[1]; [13]", "value": 8.63, "unit": "µM"}, {"measurement": "IC50", "setting": "[2]; MTT", "value": 18.1, "unit": "µM"}, {"measurement": "IC50", "setting": "lung cancer cell H1299; NCI-H1299, MTT, 48 h", "value": 10.3, "unit": "µM"}, {"measurement": "melting point", "value": "> 280", "unit": "°C"}]}
{"smiles": "CN1CCN(Cc2ccc(NC(=O)c3n[nH]cc3Nc3nccc4ccsc34)cc2)CC1", "note": "[Compound I-29, 4-(7-thieno[2,3-c]pyridylamino)-N-(4-((4-methyl-1-piperazinyl)methyl)phenyl)-1H-3-pyrazolecarboxamide]", "values": [{"measurement": "inhibition at 1 µM", "setting": "CDK2/A", "value": 76.2, "unit": "%"}, {"measurement": "inhibition at 1 µM", "setting": "Aurora A", "value": 64.4, "unit": "%"}, {"measurement": "IC50", "setting": "[1]; [12]", "value": 0.26, "unit": "µM"}, {"measurement": "IC50", "setting": "[2]", "value": 4.95, "unit": "µM"}, {"measurement": "IC50", "setting": "lung cancer cell H1299; NCI-H1299, 48 h", "value": 3.84, "unit": "µM"}, {"measurement": "MIC", "setting": "[11]", "value": 2.73, "unit": "µg/mL"}, {"measurement": "MIC", "setting": "Candida parapsilosis", "value": 6.47, "unit": "µg/mL"}, {"measurement": "MIC", "setting": "Candida tropicalis", "value": 4.21, "unit": "µg/mL"}, {"measurement": "MIC", "setting": "Cryptococcus neoformans", "value": 7.81, "unit": "µg/mL"}, {"measurement": "Severity of tomato leaf blight", "setting": "Phytophthora infestans; 0.0001 (unit not given)", "value": "+++ (40-60% blight)"}, {"measurement": "Severity of tomato leaf blight", "setting": "Phytophthora infestans; 0.001 (unit not given)", "value": "++ (15-40% blight)"}, {"measurement": "Severity of tomato leaf blight", "setting": "Phytophthora infestans; 0.01 (unit not given)", "value": "+ (0-15% blight)"}, {"measurement": "Severity of tomato leaf blight", "setting": "Phytophthora infestans; 0.1 (unit not given)", "value": "−"}, {"measurement": "melting point", "value": "274 to 276", "unit": "°C"}]}
{"smiles": "CN1CCN(Cc2ccc(NC(=O)c3n[nH]cc3Nc3ccnc4ccoc34)cc2)CC1", "note": "[Compound I-39, 4-(7-furo[3,2-b]pyridylamino)-N-(4-((4-methyl-1-piperazinyl)methyl)phenyl)-1H-3-pyrazolecarboxamide]", "values": [{"measurement": "inhibition at 1 µM", "setting": "CDK2/A", "value": 37.6, "unit": "%"}, {"measurement": "inhibition at 1 µM", "setting": "Aurora A", "value": 42.1, "unit": "%"}, {"measurement": "IC50", "setting": "[1]; [13]", "value": "> 200", "unit": "µM"}, {"measurement": "IC50", "setting": "[2]; MTT", "value": "> 200", "unit": "µM"}, {"measurement": "IC50", "setting": "lung cancer cell H1299; NCI-H1299, MTT, 48 h", "value": "> 200", "unit": "µM"}, {"measurement": "melting point", "value": "268 to 270", "unit": "°C"}]}
